How the values were obtained:
[1] = tested on: engineered RPE layer (blood vessel-RPE construct); assay: Calcium imaging (Fluo-4-AM) after ATP addition; type: cell-based; conditions: 100 μM ATP added to medium; followed by slow decrease to baseline
Method: Calcium imaging: Fluo-4-AM was prepared by adding 45 μL DMSO and 45 μL Pluronic-DMSO to a 50 μg vial of Fluo-4-AM.Fluo-4-AM was diluted with HBSS in a ratio of 1:50 and the cells were incubated for 1 hour in 37° C. The cells were washed for 30 minutes in HBSS in 37° C. The sample was placed in an inverted microscope on a heating plate adjusted to 37° C. Fluo-4-AM emission is at 506 nm and excitation is at 494 nm. Images were acquired at a rate of 3.15 Hz. 10 seconds After starting the recording 100 μM ATP were added to the medium. The data was analyzed using ImageJ. TEM: TEM Samples were fixated in 2.5% Glutaraldehyde in PBS over night at 4° C. After several washes in PBS, the samples were post fixed in 1% OsO4 in PBS for 2 h at 4° C. Dehydration was carried out in graded ethanol followed by embedding in Glycid ether. Thin sections were mounted on Formvar/Carbon coated grids, stained with uranyl acetate and lead citrate and examined in Jeol 1400-Plus transmission electron microscope (Jeol, Japan). Images were captured using SIS Megaview III and iTEM the Tem imaging platform (Olympus).SEM: Samples for SEM were fixed with 2.5% glutaraldehyde (24 h, at […]), followed by a graded incubation series in ethanol-water solutions (50-100% (v/v)). […]

[2] = High-resolution imaging of hydrogel fiber morphology and pore size; type: physicochemical
Method: Data in FIG. 7I is presented as mean±SD, n=3, and each image had at least 180 pores whose area was determined using ImageJ.

[3] = Compressive (bulk) modulus of hydrogel; type: physicochemical; conditions: compression at 100 μm s^−1; n=3
Method: The compressive modulus measurements were performed using a Discovery HR-3 Hybrid Rheometer (TA Instruments, DE) with a 20 mm diameter parallel plate geometry and a Peltier plate to maintain the sample temperature. Bulk modulus tests were performed by compressing the samples at a fixed rate of 100 μm s^−1.
Alongside the rheological testing, the bulk mechanical properties of the hydrogel were also assessed. Samples were compressed, and the linear elastic modulus was calculated. Data are presented as mean±SD, n=3.

[4] = Rheological shear thinning measurements of native and cross-linked ECM hydrogel; type: physicochemical; conditions: 37° C.
Method: Rheological Properties: Rheological measurements were taken using Discovery HR-3 hybrid Rheometer (TA Instruments, DE) with 20 mm diameter parallel plate geometry with a Peltier plate to maintain the sample temperature. The samples were loaded at a temperature of 4° C., which was then raised to 37° C. to induce gelation; during which the oscillatory moduli of samples were monitored at a fixed frequency of 1 Hz and a strain of 1%.
The mechanical properties of an exemplary native ECM-based hydrogel (derived from omentum) and of cross-linked hydrogels were assessed by rheological measurements. Shear thinning measurements were conducted at 37° C. Data are presented as mean±SD, n=3. P-values were calculated using a Comparison of Fits test with an Extra Sum of Squares F-test.

Nc1ncnc2c1ncn2[C@@H]1O[C@H](COP(=O)(O)OP(=O)(O)OP(=O)(O)O)[C@@H](O)[C@H]1O [ATP, adenosine triphosphate]
intracellular calcium levels [1]: immediately increased intracellular calcium levels in a significant manner

Oxidized sucrose [SOx]
internal fiber morphology of ECM hydrogel after reinforcement ([2]; before vs after exposure to SOx): without altering the internal morphology
pore size (holes in the mesh) before and after crosslinking ([2]; n=3, at least 180 pores per image): no difference was observed
hydrogel bulk (linear elastic) modulus with and without exposure to SOx [3]: significant reinforcement
change in gel viscosity ([4]; increasing SOx concentration to 0.07%): smaller increase
change in gel viscosity ([4]; sample cross-linked with 0.03% SOx vs control gel): large increase

Source: patent publication US20250367348A1, “3D PRINTING OF 3-LAYERED RETINA AND CHOROID TISSUE” (Ramot at Tel-Aviv University Ltd., priority 2023, published 2025)
